Data taken from US20150359884A1, “MULTI-PHOTON ISOMERISATION OF COMBRETASTATINS AND THEIR USE IN THERAPY” (priority 2011, published 2015).

How the values were obtained:
[1] = Two-photon absorption cross section using reference fluorophore 9-chloroanthracene; type: physicochemical; conditions: at 620 nm, DCM
Excerpt: (§1) Cell images were overlaid using Adobe Photoshop CS3.
Published cross sections for two photon absorption (σ2, the probability of an absorption process or photon interaction) typically show large variations depending on the method of measurement, using either the Z-scan method or a reference fluorophore, and the power range and pulse duration of the laser used for excitation. We have attempted to determine values of σ2 for E-CA4 and E-ACA4 using a reference fluorophore. 9-Chloroanthracene (9CIA) was selected as a standard fluorophore with an appropriate fluorescence spectrum and for which 2PE cross-sections are available. The values of σ2 at 620 nm for E-CA4 and E-CA4F in DCM were determined to be 2.1±0.5 and 2.75±0.6 GM units respectively. […] Values of σ2 at 620 nm for E-ACA and E-DMAC were both 5.7±1.2. These larger values may be consistent with some charge transfer character of the excitation of these compounds.

[2] = Fluorescence quantum yields in solvents, UV one-photon excitation; type: physicochemical; conditions: 20° C., 290-300 nm excitation
Procedure: Absorption spectra were measured in either a Perkin Elmer Lambda 25 or 950 spectrophotometer. Fluorescence measurements were made with either a Spex Fluoromax or Varian Cary Eclipse spectrofluorimeter using the spectral correction curves supplied by the manufacturers. Fluorescence quantum yields with UV (one-photon) excitation were determined using either 2-aminopyridine (Φref 0.6 [7]) or 9-chloroanthracene (Φref 0.50 in dichloromethane, determined here relative to 9,10-diphenylanthracene in cyclohexane (Φref 0.97) and anthracene in ethanol (Φref 0.28 [8]) as standards. Fluorescence quantum yields were determined from the relative slopes of plots of integrated fluorescence intensity versus (1-10^−A) for samples having absorbance A≦0.1. The square of the refractive index (n^2) correction was applied when sample and reference compounds were in different solvents. Irradiation of the samples was minimized by the use of narrow excitation slits to reduce simultaneous photoisomerization.
The fluorescence quantum yields for E-CA4F were generally somewhat higher than for E-CA4.

[3] = Fluorescence lifetimes in solvents, two-photon excitation with TCSPC; type: physicochemical
Procedure: Fluorescence lifetimes were determined using 2PE at 630 nm with the microscope TCSPC setup (overall time response of 25 ps fwhm) and produced the results shown in Table 1. […] Characterisation of the spectroscopic properties of these latter two compounds remains to be investigated further. […] In the very viscous environment provided by glycerol the lifetime increases further to 1180 ps. In the range of alkanols studied the lifetime is closely correlated with solvent viscosity as shown in the inset to FIG. 3. […] However it is clear that the measured lifetime has the potential to report on cellular environments in FLIM studies. For E-CA4F similar trends are observed, but the overall differences in both lifetimes and quantum yields over the range of solvents are rather less than for E-CA4. The fluorescence lifetimes of E-CA4F are confined to a narrower range having values ranging from 440 ps in methanol through 740 ps in hexane to 1070 ps in glycerol. The more pronounced solvent dependence for E-CA4 no doubt reflects the more polar nature of the molecule compared with E-CA4F. The relative polarities may be judged from the partition coefficients (P) calculated according to the method of Brown et al..

[4] = system: human umbilical vein endothelial cells (HUVECs); experiment: Fluorescence lifetime imaging (FLIM) of uptake and intracellular concentration in HUVECs; type: cell-based
Excerpt: as §1
Z-CA4 and analogues exert their anticancer activity by preventing the process of angiogenesis in which a growing tumour is supplied with new vasculature for the supply of nutrients via the bloodstream. We have therefore studied interactions between combretastatins and cultured HUVECs. […] Nevertheless it was possible to obtain images of cells after uptake upon E-combretastatin addition to the supporting medium at relatively low concentrations. […] In addition there are some punctate structures apparent in the images that appear to correlate with lipid droplets identified by Nile Red staining of the same cell. At 37° C. exact co-localization of the sequential images of combretastatin fluorescence and Nile Red labelled lipid droplets, obtained using the two different imaging systems attached to the microscope, is not possible because of the Brownian motion and the occasional rapid saltation of these structures that occur as a result of their transport upon the cellular microtubule network. The fluorescence lifetime distribution of intracellular E-CA4F observed in this cell simultaneously labelled with Nile Red peaks at ˜950 ps. […] This confirms that Nile Red and E-CA4F exist in the same space and are able to come close enough to allow FRET. The long lifetime of E-CA4F fluorescence in the HUVEC cell indicates a viscous environment for E-CA4F within the cell which is consistent with a lipidic location such as a membrane or lipid droplet. Since the fluorescence lifetimes and quantum yields of E-CA4F are directly related, it is possible to combine the FI and lifetime images to calculate the concentration distribution, using a series of standard solutions (DMSO was the chosen solvent with τ 810 ps). […] It is therefore clear that E-CA4F (and other compounds in FIG. 10) are taken up by their target endothelial cell and accumulated by up to 200 times the extracellular concentration of the compound. Similar images have been obtained that show corresponding uptake of E-CA4F within HUVECs from solutions containing as little as 1 μM E-CA4F.

HeLa cells = experiment: Fluorescence lifetime imaging (FLIM) of uptake and intracellular concentration in HeLa cells
Procedure: Both HeLa and Chinese hamster ovary (CHO) cells were obtained from the European Collection of Cell Cultures. HeLa cells were cultured in MEM medium (Gibco) containing 10% foetal calf serum, penicillin (100 units/mL), streptomycin (100 μg/mL) and glutamine (2 mM). CHO cells were cultured in DMEM (Gibco) with the same additions as for the HeLa cells. For microscopy the adherent cell cultures were grown in 35 mm diameter glass-bottom culture dishes with optical quality glass (MatTek Corporation) and incubated at 37° C. in a humidified atmosphere containing 5% CO2. Human umbilical vein endothelial cells (HUVECs) were obtained from TCS Cellworks. HUVECs were sub-cultured in basal medium (TCS Cellworks) supplemented with antibiotic supplement/amphotericin-B, following the detailed guidelines provided by TCS Cellworks.
The fluorescence lifetime imaging system with multiphoton excitation employed lasers for multiphoton excitation consisting of a Ti:Sapphire laser, tuneable between 700 and 1000 nm and providing ca 180 fs pulses at 76 MHz, and an optical parametric oscillator (OPO) pumped by a second Ti:Sapphire laser source. Using the doubled idler output of the OPO, useful energies (>200 mW) could be obtained between 550 and 640 nm. Samples were excited on the stage of Nikon TE2000U inverted microscope using a water immersion ×60 objective of NA 1.2. Using the various microscope ports it was possible to record the fluorescence in a number of ways. The fluorescence signal at one port was relayed to a spectrometer (Acton 275) and CCD setup (Andor iDUS) so that emission spectra and intensities could be recorded. Alternatively the fluorescence signal could be routed via a second port to a time-correlated single photon counting (TCSPC) system (Becker and Hickl SPC-830) allowing fluorescence lifetime measurements and fluorescence lifetime imaging (FLIM), using Becker and Hickl software (SPCImage) for analysis. In FLIM mode the fluorescence was isolated by a suitable narrowband interference filter (400IU25 together with BG3 (Comar)). […] Two photon cross sections were determined using a reference fluorophore as a two photon standard as described by Mathai et al., employing published values of the two-photon cross section for 9-chloroanthracene.
Images of intracellular distribution of E-combretastatins in cell monolayers were obtained using fluorescence lifetime imaging, in which the rastered excitation laser beam dwells on each pixel for a few milliseconds and at each position records a nanosecond fluorescence lifetime decay curve using the time-correlated single photon counting method. […]
Quantification of fluorophore concentration from intensity measurements is often difficult.

[5] = DCM, 20° C., two-photon excitation 620-630 nm, ne = non-exponential
[6] = DMSO, 20° C., two-photon excitation 620-630 nm
[7] = EtOH, 20° C., two-photon excitation 620-630 nm, ne = non-exponential
[8] = Ethylene glycol, 20° C., two-photon excitation 620-630 nm, ne = non-exponential
[9] = Hexane, 20° C., two-photon excitation 620-630 nm
[10] = MeCN, 20° C., two-photon excitation 620-630 nm, ne = non-exponential
[11] = MeOH, 20° C., two-photon excitation 620-630 nm, ne = non-exponential
[12] = HUVEC, 5 μM in medium, 37° C., 60 min

Row | SMILES | Two photon absorption cross section σ2 [1] [GM units] | Fluorescence quantum yield φ ([2]; DCM) | Fluorescence lifetime τ [3, 5] | Fluorescence lifetime τ [3, 6] [ns] | Fluorescence lifetime τ [3, 7] | Fluorescence lifetime τ [3, 8] | Fluorescence lifetime τ [3, 9] [ns] | Fluorescence lifetime τ [3, 10] | Fluorescence lifetime τ [3, 11] | further results
1 | COc1ccc(/C=C/c2cc(OC)c(OC)c(OC)c2)cc1F [E-CA4F, (E)-1-(3′,4′,5′-trimethoxyphenyl)-2-(3″-fluoro-4″-methoxyphenyl)ethene] | 2.75±0.6 | 0.23 | 0.61 ns | 0.81 | 0.48 ns | 0.76 ns | 0.75 | 0.59 ns | 0.44 ns | Fluorescence quantum yield φ ([2]; DMSO): 0.29; Fluorescence quantum yield φ ([2]; EtOH): 0.17; Fluorescence quantum yield φ ([2]; Ethylene glycol): 0.29; Fluorescence quantum yield φ ([2]; Glycerol): 0.42; Fluorescence quantum yield φ ([2]; Hexane): 0.31; Fluorescence quantum yield φ ([2]; MeCN): 0.2; Fluorescence quantum yield φ ([2]; MeOH): 0.15; Fluorescence lifetime τ ([3]; DMSO standard solutions): 810 ps; Fluorescence lifetime τ ([3]; Glycerol, 20° C., two-photon excitation 620-630 nm, ne = non-exponential): 1.07 ns; Fluorescence lifetime ([3]; glycerol): 1070 ps; Fluorescence lifetime ([3]; hexane): 740 ps; Fluorescence lifetime ([3]; methanol): 440 ps; Accumulation relative to the extracellular concentration ([4]; HUVEC endothelial cells): up to 200 times; Intracellular concentration in many parts of the cell [4, 12]: 500 µM; Intracellular concentration in the lipid droplets, peak [4, 12]: over 1 mM; Intracellular concentration as times that added to the surrounding medium ([4]; HUVEC, 5 μM in medium, many parts of the cell): 100 times; Intracellular distribution ([4]; HUVEC, 5 μM, 37° C., 60 min): taken up into the cytoplasmic region of the cell, but excluded from the cell nucleus
2 | COc1cc(C=Cc2ccc(C#N)cc2)cc(OC)c1OC [E-CNCA4, 4-[2-(3,4,5-trimethoxyphenyl)vinyl]benzonitrile] |  |  |  | 0.71 |  |  |  |  |  | Intracellular distribution (HeLa cells): accumulates mainly within the cell cytoplasm and is excluded from the cell nucleus
3 | COc1cc(/C=C/c2ccc(N(C)C)cc2)cc(OC)c1OC [E-DMAC, (E)-1-(3′,4′,5′-Trimethoxyphenyl)-2-(4″-dimethylamino-phenyl)ethene] | 5.7±1.2 | 0.11 | ne | 0.36 | ne | ne | 0.41 | ne | ne | 
